In ChEMBL document CHEMBL4837206, “Synthesis and biological evaluation of novel isoxazole-piperazine hybrids as potential anti-cancer agents with inhibitory effect on liver cancer stem cells” (Eur J Med Chem, 2021):
Calls of active or inactive are those of the source. The calls are words filed in the database; no cut-off is given here.

What was measured:
SNU-475 [1] = assay: Cell cycle arrest in human SNU-475 cells assessed as increase in accumulation of cells at G2/M phase at 5 uM measured after 48 hrs by propidium iodide staining based flow cytometric analysis; assay type: functional
Huh-7 [2] = assay: Inhibition of cell stemness in human Huh-7 cells assessed as decrease in NANOG level at 10 uM measured after 72 hrs by flow cytometry analysis; assay type: functional, cell-based
Mahlavu [3] = assay: Inhibition of cell stemness in human Mahlavu cells assessed as decrease in OCT4 level at 10 uM measured after 72 hrs by flow cytometry analysis; assay type: functional, cell-based
Mahlavu [4] = assay: Activation of p53 harboring G249T mutant in human Mahlavu cells assessed as upregulation of p53 acetylation at Lys382 residue at 5 uM incubated for 72 hrs by western blot analysis; assay type: cell-based; settings: filed as activator
SNU-475 [5] = assay: Induction of apoptosis in human SNU-475 cells assessed as nuclear fragmentation measured after 48 hrs by Hoechst33258 staining based inverted fluorescent microscopic method; assay type: functional, cell-based
[6] = target: T1, Serine/threonine-protein kinase AKT (Homo sapiens) (UniProt P31751+Q9Y243+P31749); assay: Inhibition of Akt phosphorylation at Ser473 residue in human Huh-7 cells at 5 uM measured after 72 hrs by Western blot analysis; assay type: cell-based
T1 sequence (P31749 whole entry, looked up): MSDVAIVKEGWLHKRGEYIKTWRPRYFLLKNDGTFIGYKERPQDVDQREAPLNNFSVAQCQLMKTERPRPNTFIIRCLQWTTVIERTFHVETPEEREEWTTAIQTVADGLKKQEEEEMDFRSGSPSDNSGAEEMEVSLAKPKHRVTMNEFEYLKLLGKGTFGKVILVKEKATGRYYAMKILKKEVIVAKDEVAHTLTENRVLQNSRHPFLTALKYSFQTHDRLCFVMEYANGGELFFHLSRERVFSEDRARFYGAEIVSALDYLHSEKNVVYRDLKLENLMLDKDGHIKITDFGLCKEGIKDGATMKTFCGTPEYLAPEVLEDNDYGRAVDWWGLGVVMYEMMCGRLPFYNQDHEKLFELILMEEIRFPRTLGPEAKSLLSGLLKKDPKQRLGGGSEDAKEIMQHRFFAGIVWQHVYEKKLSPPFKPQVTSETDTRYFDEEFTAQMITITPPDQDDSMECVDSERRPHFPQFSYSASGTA
T1 sequence (P31751 whole entry, looked up): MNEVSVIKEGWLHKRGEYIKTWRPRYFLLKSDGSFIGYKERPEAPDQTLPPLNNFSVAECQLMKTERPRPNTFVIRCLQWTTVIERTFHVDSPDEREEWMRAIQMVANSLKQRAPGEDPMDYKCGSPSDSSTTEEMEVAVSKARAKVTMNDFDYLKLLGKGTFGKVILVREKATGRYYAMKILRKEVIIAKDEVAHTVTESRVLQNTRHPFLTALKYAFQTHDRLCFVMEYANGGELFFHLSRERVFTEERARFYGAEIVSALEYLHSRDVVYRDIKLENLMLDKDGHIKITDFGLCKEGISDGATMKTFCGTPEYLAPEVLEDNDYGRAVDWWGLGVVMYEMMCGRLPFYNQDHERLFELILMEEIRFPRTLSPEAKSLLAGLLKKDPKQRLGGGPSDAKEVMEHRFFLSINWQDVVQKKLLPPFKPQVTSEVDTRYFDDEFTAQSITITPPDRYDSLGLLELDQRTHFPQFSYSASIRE
T1 sequence (Q9Y243 whole entry, looked up): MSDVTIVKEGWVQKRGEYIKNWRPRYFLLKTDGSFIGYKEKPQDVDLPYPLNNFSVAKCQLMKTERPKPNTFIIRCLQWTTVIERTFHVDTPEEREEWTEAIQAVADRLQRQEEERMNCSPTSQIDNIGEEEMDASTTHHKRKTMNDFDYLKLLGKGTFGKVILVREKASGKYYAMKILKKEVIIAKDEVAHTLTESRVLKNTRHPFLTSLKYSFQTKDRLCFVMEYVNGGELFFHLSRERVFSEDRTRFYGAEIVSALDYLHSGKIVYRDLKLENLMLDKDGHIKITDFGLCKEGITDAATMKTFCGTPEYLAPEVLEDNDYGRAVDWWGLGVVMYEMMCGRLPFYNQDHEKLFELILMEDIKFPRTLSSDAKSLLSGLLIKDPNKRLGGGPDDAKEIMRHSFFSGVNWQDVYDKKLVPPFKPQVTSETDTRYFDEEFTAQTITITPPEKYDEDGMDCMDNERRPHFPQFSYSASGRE

SNU-475 [7] = assay: Activation of p53 harboring A239G/T275C/A288G mutant in human SNU-475 cells assessed as upregulation of p53 acetylation at Lys382 residue at 5 uM incubated for 72 hrs by western blot analysis; assay type: cell-based; settings: filed as activator
HepG2 [8] = assay: Antiproliferative activity against human HepG2 cells assessed as reduction in cell viability measured for 180 hrs by RT-CES analysis; assay type: functional, cell-based; settings: dose 2.5-10 µM
HepG2 [9] = assay: Antiproliferative activity against human HepG2 cells assessed as reduction in cell viability measured after 90 hrs by RT-CES analysis; assay type: functional, cell-based
Mahlavu [10] = assay: Inhibition of cell stemness in human Mahlavu cells assessed as decrease in NANOG mRNA level at 10 uM measured after 72 hrs by RT-qPCR analysis; assay type: functional, cell-based
Huh-7 [11] = assay: Induction of apoptosis in human Huh-7 cells assessed as chromatin condensation measured after 48 hrs by Hoechst33258 staining based inverted fluorescent microscopic method; assay type: functional, cell-based
[12] = Inhibition of PI3K/Akt/mTOR signaling in human Mahlavu cells assessed as downregulation of c-Myc protein expression at 5 uM measured after 72 hrs by Western blot analysis; assay type: cell-based
HepG2 [13] = assay: Induction of apoptosis in human HepG2 cells assessed as chromatin condensation measured after 48 hrs by Hoechst33258 staining based inverted fluorescent microscopic method; assay type: functional, cell-based
Mahlavu [14] = assay: Induction of apoptosis in human Mahlavu cells assessed as nuclear fragmentation measured after 48 hrs by Hoechst33258 staining based inverted fluorescent microscopic method; assay type: functional, cell-based
Huh-7 [15] = assay: Inhibition of cell stemness in human Huh-7 cells assessed as CD133+/EpCAM+ expression at 10 uM measured after 72 hrs by flow cytometry analysis (reference value: 29.92%); assay type: functional; set-up: scale not given: the % may be the effect or the level left
SNU-475 [16] = assay: Antiproliferative activity against human SNU-475 cells assessed as reduction in cell viability measured for 180 hrs by RT-CES analysis; assay type: functional, cell-based; settings: dose 2.5-10 µM
[17] = target: T1, Serine/threonine-protein kinase AKT (Homo sapiens); assay: Inhibition of Akt phosphorylation at Ser473 residue in human SNU-475 cells at 5 uM measured after 72 hrs by Western blot analysis; assay type: cell-based
HepG2 [18] = assay: Induction of apoptosis in human HepG2 cells assessed as apoptotic body formation measured after 48 hrs by Hoechst33258 staining based inverted fluorescent microscopic method; assay type: functional, cell-based
[19] = target: Cellular tumor antigen p53 (Homo sapiens) (UniProt P04637); assay: Activation of p53 in human HepG2 cells at 5 uM measured after 72 hrs by Western blot analysis; assay type: cell-based
Sequence of Cellular tumor antigen p53 (Homo sapiens) (P04637 whole entry, looked up): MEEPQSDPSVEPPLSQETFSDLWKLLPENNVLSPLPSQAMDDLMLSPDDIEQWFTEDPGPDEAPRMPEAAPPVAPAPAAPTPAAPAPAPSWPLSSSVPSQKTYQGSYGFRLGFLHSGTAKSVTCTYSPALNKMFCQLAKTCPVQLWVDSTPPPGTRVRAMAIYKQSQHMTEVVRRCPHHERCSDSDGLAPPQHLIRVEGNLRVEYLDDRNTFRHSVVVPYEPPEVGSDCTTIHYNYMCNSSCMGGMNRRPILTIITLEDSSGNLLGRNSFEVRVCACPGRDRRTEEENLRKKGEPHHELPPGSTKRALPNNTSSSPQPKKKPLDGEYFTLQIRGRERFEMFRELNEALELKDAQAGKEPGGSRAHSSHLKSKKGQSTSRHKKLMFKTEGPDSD

Huh-7 [20] = assay: Inhibition of cell stemness in human Huh-7 cells assessed as decrease in NANOG mRNA level at 10 uM measured after 72 hrs by RT-qPCR analysis; assay type: functional, cell-based
[21] = target: Mitogen-activated protein kinase; ERK1/ERK2 (Homo sapiens) (UniProt P27361+P28482); assay: Downregulation of ERK1/2 phosphorylation at T202/Y204 residue in human HepG2 cells at 5 uM measured after 72 hrs by Western blot analysis; assay type: cell-based
Sequence of Mitogen-activated protein kinase; ERK1/ERK2 (Homo sapiens) (P27361 whole entry, looked up): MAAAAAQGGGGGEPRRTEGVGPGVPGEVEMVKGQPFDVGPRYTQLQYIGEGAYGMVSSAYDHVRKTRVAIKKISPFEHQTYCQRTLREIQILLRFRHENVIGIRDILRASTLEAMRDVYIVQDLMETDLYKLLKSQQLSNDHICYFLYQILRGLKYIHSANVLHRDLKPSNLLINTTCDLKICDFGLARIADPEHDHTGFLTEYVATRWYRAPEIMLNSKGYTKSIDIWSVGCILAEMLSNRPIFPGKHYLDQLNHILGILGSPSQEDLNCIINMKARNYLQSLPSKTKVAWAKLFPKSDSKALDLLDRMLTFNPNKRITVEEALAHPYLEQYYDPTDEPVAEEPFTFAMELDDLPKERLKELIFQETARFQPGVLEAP
Sequence of Mitogen-activated protein kinase; ERK1/ERK2 (Homo sapiens) (P28482 whole entry, looked up): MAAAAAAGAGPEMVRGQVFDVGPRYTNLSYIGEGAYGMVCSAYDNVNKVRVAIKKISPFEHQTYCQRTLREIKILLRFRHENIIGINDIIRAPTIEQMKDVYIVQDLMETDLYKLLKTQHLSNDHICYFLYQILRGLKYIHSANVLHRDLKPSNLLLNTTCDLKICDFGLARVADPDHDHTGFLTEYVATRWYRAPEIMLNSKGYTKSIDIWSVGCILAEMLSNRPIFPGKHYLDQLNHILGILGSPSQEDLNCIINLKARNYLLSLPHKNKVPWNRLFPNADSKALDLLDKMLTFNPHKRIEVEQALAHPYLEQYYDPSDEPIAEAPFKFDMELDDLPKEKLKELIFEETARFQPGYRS

SNU-475 [22] = assay: Antiproliferative activity against human SNU-475 cells assessed as reduction in cell viability measured after 40 to 130 hrs by RT-CES analysis; assay type: functional, cell-based; settings: time 40-130 hrs
SNU-475 [23] = assay: Activation of p53 harboring A239G/T275C/A288G mutant in human SNU-475 cells assessed as upregulation of p21 protein expression at 5 uM incubated for 72 hrs by western blot analysis; assay type: cell-based; settings: filed as activator
Mahlavu [24] = assay: Activation of p53 harboring G249T mutant in human Mahlavu cells assessed as upregulation of p53 phosphorylation at Ser15 residue at 5 uM incubated for 72 hrs by western blot analysis; assay type: cell-based; settings: filed as activator

| SMILES | Activity (SNU-475 [1]) | inhibition (Huh-7 [2]) | inhibition (Mahlavu [3]) | Activity (Mahlavu [4]) | Activity (SNU-475 [5]) | inhibition [6] | Activity (HepG2 [8]) | Activity (HepG2 [9]) | Activity (Huh-7 [11]) | inhibition [12] | Activity (HepG2 [13]) | Activity (Mahlavu [14]) | Activity (Huh-7 [15]) [%] | Activity (SNU-475 [16]) | Activity (HepG2 [18]) | Activity [19] | inhibition (Huh-7 [20]) | inhibition [21] | Activity (SNU-475 [22]) | Activity (SNU-475 [23]) | other results |
| --- | --- | --- | --- | --- | --- | --- | --- | --- | --- | --- | --- | --- | --- | --- | --- | --- | --- | --- | --- | --- | --- |
| N#Cc1cccc(COc2ccc(-c3cc(CN4CCN(Cc5ccc(C(F)(F)F)cc5)CC4)no3)cc2F)c1 | Active | Active | Active | Active | Active | inactive | Dose-Dependent Effect | Active | Active | Active | Active | Active | 13.12 | Dose-Dependent Effect | Active | inactive | Active | Active | Active | Active | Activity (SNU-475 [7]): Active; inhibition (Mahlavu [10]): Active; inhibition [17]: Active |
| FC(F)(F)c1ccc(CN2CCN(Cc3cc(-c4ccc(OCc5ccccc5)cc4)on3)CC2)cc1 | Active | Active | Active | Active | Active | inactive | Dose-Dependent Effect | Active | Active | Active | Active | Active | 23.68 | Dose-Dependent Effect | Active | inactive | Active | Active | Active | Active | Activity (Mahlavu [24]): Active |
